Columns and labels:
Assay in all cases: relative viability (nuclei count vs DMSO), 5 days (fraction); higher = more cells survive
IPA-3 + Alpelisib = compound: C1=CC=C2C(=C1)C=CC(=C2SSC3=C(C=CC4=CC=CC=C43)O)O [IPA-3] + Cc1nc(NC(=O)N2CCC[C@H]2C(N)=O)sc1-c1ccnc(C(C)(C)C(F)(F)F)c1 [Alpelisib] (partner 2 µM)
Procedure, shortened: (§1)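 After 5 days of treatment, lung cancer cells in 1536-well plates were fixed and stained in a single step (final 0.05% Triton X-100, 1% formaldehyde, 1 ug/ml Hoechst) and their nuclei counted on 4× images. Treatment had been applied by pin tool the day after seeding as one drug alone or as a fixed anchor-drug dose with five library-drug doses (not always all listed) in √10 steps. Relative viability is the nuclei count of treated wells divided by that of vehicle wells, and values are medians of duplicate plates.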

Doramapimod + Tozasertib = compound: Cc1ccc(-n2nc(C(C)(C)C)cc2NC(=O)Nc2ccc(OCCN3CCOCC3)c3ccccc23)cc1 [Doramapimod] + Cc1cc(Nc2cc(N3CCN(C)CC3)nc(Sc3ccc(NC(=O)C4CC4)cc3)n2)n[nH]1 [Tozasertib] (partner 0.1 µM)
Procedure, shortened: as §1

RAF265 + Navitoclax = compound: Cn1c(Nc2ccc(C(F)(F)F)cc2)nc2cc(Oc3ccnc(-c4ncc(C(F)(F)F)[nH]4)c3)ccc21 [RAF265] + CC1(C)CCC(c2ccc(Cl)cc2)=C(CN2CCN(c3ccc(C(=O)NS(=O)(=O)c4ccc(N[C@H](CCN5CCOCC5)CSc5ccccc5)c(S(=O)(=O)C(F)(F)F)c4)cc3)CC2)C1 [Navitoclax] (partner 0.5 µM)
Procedure, shortened: as §1

RAF265 + AZD7762 = compound: Cn1c(Nc2ccc(C(F)(F)F)cc2)nc2cc(Oc3ccnc(-c4ncc(C(F)(F)F)[nH]4)c3)ccc21 [RAF265] + NC(=O)Nc1cc(-c2cccc(F)c2)sc1C(=O)N[C@H]1CCCNC1 [AZD7762] (partner 0.2 µM)
Procedure, shortened: as §1

Cell Line | relative viability (IPA-3 + Alpelisib; first compound 0.2 µM) | relative viability (IPA-3 + Alpelisib; first compound 0.6325 µM) | relative viability (IPA-3 + Alpelisib; first compound 2 µM) | relative viability (IPA-3 + Alpelisib; first compound 6.325 µM) | relative viability (IPA-3 + Alpelisib; first compound 20 µM) | relative viability (Doramapimod + Tozasertib; first compound 0.02 µM) | relative viability (Doramapimod + Tozasertib; first compound 0.06325 µM) | relative viability (Doramapimod + Tozasertib; first compound 0.2 µM) | relative viability (Doramapimod + Tozasertib; first compound 0.6325 µM) | relative viability (Doramapimod + Tozasertib; first compound 2 µM) | relative viability (RAF265 + Navitoclax; first compound 0.01 µM) | relative viability (RAF265 + Navitoclax; first compound 0.03162 µM) | relative viability (RAF265 + Navitoclax; first compound 0.1 µM) | relative viability (RAF265 + Navitoclax; first compound 0.3162 µM) | relative viability (RAF265 + Navitoclax; first compound 1 µM) | relative viability (RAF265 + AZD7762; first compound 0.01 µM) | relative viability (RAF265 + AZD7762; first compound 0.03162 µM) | relative viability (RAF265 + AZD7762; first compound 0.1 µM) | relative viability (RAF265 + AZD7762; first compound 0.3162 µM) | relative viability (RAF265 + AZD7762; first compound 1 µM)
RERF-LC-KJ | 0.933 | 0.807 | 0.83 | 0.668 | 0.928 | 0.506 | 0.535 | 0.609 | 0.516 | 0.498 | 1.08 | 0.95 | 0.851 | 0.747 | 0.841 | 1.1 | 1.03 | 0.765 | 0.756 | 0.557
NCI-H322M | 0.867 | 0.823 | 0.759 | 0.0386 | 0.901 | 0.519 | 0.487 | 0.532 | 0.497 | 0.531 | 1.18 | 1.14 | 1.15 | 0.381 | 0.274 | 0.55 | 0.717 | 0.493 | 0.381 | 0.404
NCI-H1993 | 0.742 | 0.6 | 0.616 | 0.66 | 0.594 | 0.688 | 0.564 | 0.622 | 0.598 | 0.565 | 1.1 | 0.947 | 1.08 | 0.719 | 0.783 | 0.784 | 0.82 | 0.791 | 0.602 | 0.635
NCI-H1437 | 1.32 | 0.938 | 1.11 | 0.974 | 1.27 | 0.416 | 0.431 | 0.394 | 0.404 | 0.401 | 1.1 | 1.06 | 1.01 | 1.18 | 1.1 | 1.08 | 1.13 | 1.2 | 1.15 | 1.1
NCI-H838 | 1.25 | 0.948 | 1.05 | 1.06 | 1.16 | 0.299 | 0.27 | 0.285 | 0.253 | 0.257 | 1.23 | 1.14 | 1.15 | 1.1 | 1.01 | 0.865 | 0.953 | 0.964 | 1.03 | 0.841
NCI-H1666 | 1.09 | 0.978 | 1 | 1.12 | 0.844 | 0.642 | 0.687 | 0.641 | 0.624 | 0.597 | 1.01 | 1 | 0.882 | 0.931 | 0.454 | 0.935 | 0.882 | 0.837 | 0.854 | 0.825
NCI-H1944 | 0.836 | 0.832 | 0.958 | 0.942 | 0.983 | 0.234 | 0.229 | 0.235 | 0.256 | 0.235 | 1.11 | 1.06 | 1.15 | 0.798 | 0.86 | 0.75 | 0.617 | 0.512 | 0.448 | 0.365
NCI-H1755 | 1.11 | 0.918 | 0.908 | 0.939 | 1.03 | 0.581 | 0.58 | 0.597 | 0.611 | 0.469 | 0.999 | 0.879 | 0.764 | 0.671 | 0.356 | 0.548 | 0.475 | 0.483 | 0.405 | 0.425
NCI-H23 | 0.694 | 0.577 | 0.73 | 0.645 | 0.805 | 0.622 | 0.34 | 0.366 | 0.433 | 0.326 | 0.886 | 0.825 | 0.775 | 0.553 | 0.317 | 0.309 | 0.263 | 0.228 | 0.182 | 0.169
201T | 1.02 | 1.01 | 0.997 | 0.936 | 1.04 | 0.914 | 0.918 | 0.935 | 1.05 | 0.906 | 1.23 | 1.2 | 1.23 | 1.27 | 1.28 | 0.596 | 0.578 | 0.653 | 0.668 | 0.783
NCI-H1734 | 0.733 | 0.594 | 0.692 | 0.677 | 0.822 | 0.273 | 0.267 | 0.229 | 0.284 | 0.235 | 0.886 | 0.656 | 0.825 | 0.628 | 0.348 | 0.545 | 0.516 | 0.437 | 0.325 | 0.217
NCI-H1355 | 0.918 | 0.782 | 0.809 | 0.797 | 0.802 | 0.543 | 0.538 | 0.55 | 0.556 | 0.495 | 1.01 | 0.831 | 0.919 | 0.532 | 0.264 | 0.816 | 0.668 | 0.772 | 0.68 | 0.515
NCI-H1915 | 1.17 | 1.05 | 1.09 | 1.03 | 1.07 | 0.438 | 0.464 | 0.489 | 0.459 | 0.384 | 0.76 | 0.72 | 0.712 | 0.407 | 0.281 | 0.649 | 0.655 | 0.663 | 0.602 | 0.41
BEN | 1.28 | 0.992 | 1.09 | 0.954 | 1.26 | 0.533 | 0.402 | 0.499 | 0.325 | 0.429 | 0.0592 | 0.0731 | 0.0721 | 0.0801 | 0.0649 | 0.675 | 0.805 | 0.837 | 0.674 | 0.661
NCI-H3122 | 0.797 | 0.798 | 0.804 | 0.856 | 0.776 | 0.439 | 0.408 | 0.448 | 0.431 | 0.365 | 1 | 1.08 | 1.01 | 1.04 | 0.967 | 1.03 | 1.17 | 1.02 | 0.949 | 0.862
